Molecules are shown by their SMILES. “And” between values parts separate entries of the source, which are not always exact repeats. Equal entries are not always repeated.

The target in one assay is T1, glucocorticoid receptor (Rattus norvegicus, UniProt P06536).
T1 construct: endogenous in cells; host or cells: HTC (rat hepatoma) cells, 100,000 x g cytosol
T1 sequence (P06536 1-795): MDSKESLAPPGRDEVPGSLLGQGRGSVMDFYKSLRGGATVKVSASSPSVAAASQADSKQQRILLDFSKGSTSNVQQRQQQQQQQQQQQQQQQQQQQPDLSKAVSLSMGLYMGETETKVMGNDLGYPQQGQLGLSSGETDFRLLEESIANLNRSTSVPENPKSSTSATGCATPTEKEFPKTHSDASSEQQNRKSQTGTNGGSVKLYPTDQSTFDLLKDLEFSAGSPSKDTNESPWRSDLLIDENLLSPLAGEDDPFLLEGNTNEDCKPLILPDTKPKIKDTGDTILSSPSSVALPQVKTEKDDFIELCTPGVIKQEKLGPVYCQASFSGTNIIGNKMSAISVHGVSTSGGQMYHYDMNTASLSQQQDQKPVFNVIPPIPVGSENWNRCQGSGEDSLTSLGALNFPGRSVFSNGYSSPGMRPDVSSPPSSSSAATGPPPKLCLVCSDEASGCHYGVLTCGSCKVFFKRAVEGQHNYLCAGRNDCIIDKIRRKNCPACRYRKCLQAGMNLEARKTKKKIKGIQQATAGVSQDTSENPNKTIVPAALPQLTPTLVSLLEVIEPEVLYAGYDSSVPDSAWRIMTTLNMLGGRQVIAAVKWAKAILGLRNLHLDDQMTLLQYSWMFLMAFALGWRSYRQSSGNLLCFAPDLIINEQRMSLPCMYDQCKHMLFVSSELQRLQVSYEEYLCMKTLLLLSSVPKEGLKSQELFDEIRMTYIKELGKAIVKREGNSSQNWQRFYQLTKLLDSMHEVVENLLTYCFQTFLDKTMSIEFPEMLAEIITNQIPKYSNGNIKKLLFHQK
Briefly: competition for 3H-dexamethasone binding sites in HTC cytosol (glucocorticoid receptor affinity). The settings on record: Table 1; displacement of 25 nM 3H-DEX, HTC (rat hepatoma) cytosol, 3 hours on ice. The procedure: LE II (mouse lung capillary endothelial) or HTC (rat hepatoma) cells were grown in Dulbecco's modified Eagle's (DMEM) medium plus 10% fetal calf serum (FCS), in 150 cm^2 T-flasks. Approximately 20 flasks of LE II cells or 10 flasks of HTC cells were needed for a 60-80 sample assay.
Cell monolayers were washed 3 times with Phosphate Buffered Saline (PBS) and harvested by scraping with a rubber policeman into an ice-cold sonication buffer of 0.25M sucrose; 10 mM Tris-HCl, pH 7.4; 5 mM ethylenediaminetetraacetic acid (EDTA); 5 mM dithiothereitol; and 10 mM sodium molybdate. All subsequent steps were performed at 4° C. The cells were pooled into a final volume of 8-12 mls, broken by sonication for 45 seconds with the microtip of a Branson sonifier at setting #3 and the residue was then centrifuged at 100,000 X g for 30 minutes with a Beckman L8-50, Ti50 rotor, at 40,000 rpm. […] Incubations were peformed in a final volume of 1 ml in 1.5 ml Eppendorf centrifuge tubes for 3 hours on ice.
Fine Sephadex G-50 gel was swollen and equilibrated against column buffer of 100 mM Tris-HCl, pH 7.8; and 3 mM CaCl2. Columns were poured to a final packed volume of 4.5 ml in 5 ml plastic disposable pipets.
The packed columns were then drained of buffer and the 1 ml incubated samples were applied to each. The samples were washed into the columns with 0.5 ml of column buffer, and the exclusion volumes containing the protein peaks were eluted with another 1 ml of column buffer and collected. Aliquots of 750 μl of Biorad protein reagent were diluted 1:5 in H2 O. OD630 nm reading were compared with those obtained for a bovine serum albumin standard curve.

The next assay has as its system Epidermal Growth Factor. Description: hamster cheek pouch (HCP) angiogenesis inhibition, EGF stimulus. It counts as in vivo, Male Syrian Golden hamsters. The settings on record: Table 1; 10 μg EGF; between 0.5 and 4 mg/kg s.c. daily; each number independent result, average of six animals. The procedure: Each compound of the series was also tested for anti-angiogenic activity by an in vivo test that measured vascularization in a hamster's cheek pouch in response to either an angiogenic polypeptide growth factor, epidermal growth factor (EGF) or an induced […].
In this example, the in vivo angiogenesis inhibition activity of etianic acid esters was tested. Male Syrian Golden hamsters, weighing between 120 g and 150 g were anaesthetized by intraperitoneal (I.P.) injection of a rodent anaesthetic mixture consisting of 50 mg/kg ketamine hydrochloride, 5 mg/kg xylazine and 1 mg/kg acepromazine. The left cheek pouch of each animal was everted with a pincet and pinned down to a plexiglass-rubber stage and observed through a Zeiss stereomicroscope. 10 μg of EGF or 3×10^5 Hamster Melanoma RPM1 1846 tumor cells in 10 μl Cibachrome Blue agarose (Amicon) were injected subcutaneously in the left lower quadrant of the pouch with a Hamilton syringe.
The pouch was then reinserted and animals were kept under observation until recovered from anaesthesia.
The animals were dosed daily with one test compound, starting one day before stimulus injection and continuing until observation. The test compounds were dissolved in a minimum volume of ethanol and diluted in sterile phosphate buffer solution. […]
Either five days or twelve days after the EGF or tumor cell injection, animals were anaesthetized by I.P. injection of the rodent anaesthetic mixture. The pouch was everted on the stage and examined under the stereomicroscope. Pictures were taken with a 35 mm using Kodak Tungsten 50 professional films.
The following subjective scoring was used for evaluating the photographs:
1: minimal branching of vessels in the vicinity of injection site.
2: new vessels reach injection site, area involved is minimal (<50% of area surrounding injection site).
3: many vessels reach and cross injection site, new vessels are tortuous, (>50% of area surrounding injection site).
4: "full blown", many tortuous vessels, leakages, hemorrhages, 100% of area around injection site, invasion of new vessels into non-injected areas.
Results are expressed as the mean of the score. The results are shown in Tables 1 and 2 are percent inhibition of HCP Stimulus.

In general, IC50 refers to the concentration at which inhibition is half-maximal. A high value points to weaker potency in that assay. As to `CCC(=O)O[C@]1(C(=O)OC)[C@@H](C)C[C@H]2[C@@H]3CCC4=CC(=O)C=C[C@]4(C)[C@@]3(F)[C@@H](O)C[C@@]21C` [compound 1], the IC50 at glucocorticoid receptor stood at 5 nM. The “% Inhibition HCP Stimulus Epidermal Growth Factor” value with Epidermal Growth Factor was 70% and 77%.

`CCC(=O)O[C@]1(C(=O)OC)[C@@H](C)C[C@H]2[C@@H]3CC(F)C4=C(F)C(=O)C=C[C@]4(C)[C@@]3(F)[C@@H](O)C[C@@]21C` (stereo partly drawn) [compound 3] showed a half-maximal inhibitory concentration (IC50) at glucocorticoid receptor of 15 nM. In the assay with Epidermal Growth Factor, the “% Inhibition HCP Stimulus Epidermal Growth Factor” value was 95% and 91%.

Consider `CCCC(=O)O[C@]1(C(=O)OC)[C@@H](C)C[C@H]2[C@@H]3CC(F)C4=CC(=O)C=C[C@]4(C)[C@@]3(F)[C@@H](O)C[C@@]21C` (stereo partly drawn) [compound 4], for which, on glucocorticoid receptor, the IC50 came to 0.25 nM. Moreover, the “% Inhibition HCP Stimulus Epidermal Growth Factor” value in the assay on Epidermal Growth Factor was 100% and 78%.

The molecule `CCC(=O)O[C@]1(C(=O)OC)[C@H](C)C[C@H]2[C@@H]3CC(F)C4=CC(=O)C=C[C@]4(C)[C@@]3(F)[C@@H](O)C[C@@]21C` (stereo partly drawn) [compound 7] returned an IC50 on glucocorticoid receptor of 4 nM. The “% Inhibition HCP Stimulus Epidermal Growth Factor” value with Epidermal Growth Factor was determined as 57%.

For `CCC(=O)O[C@]1(C(=O)OC)[C@H](C)C[C@H]2[C@@H]3CC(F)C4=C(F)C(=O)C=C[C@]4(C)[C@@]3(F)[C@@H](O)C[C@@]21C` (stereo partly drawn) [compound 8], at glucocorticoid receptor, the IC50 came out at 0.25 nM. The “% Inhibition HCP Stimulus Epidermal Growth Factor” value with Epidermal Growth Factor is 100% and 72% and 82%.

Molecule `CCCC(=O)O[C@]1(C(=O)OC)[C@H](C)C[C@H]2[C@@H]3CC(F)C4=CC(=O)C=C[C@]4(C)[C@@]3(F)[C@@H](O)C[C@@]21C` (stereo partly drawn) [compound 9] returned an IC50 on glucocorticoid receptor of 0.025 nM. Moreover, in the assay on Epidermal Growth Factor, the “% Inhibition HCP Stimulus Epidermal Growth Factor” value amounted to 100%.

Source of the values: patent US4599331A, “Etianic acids as antiangiogenics” (Syntex (U.S.A.) Inc., priority 1984, dated 1986).
